What was measured:
duck salad = assay: Test B flood test duck salad; assay type: in vivo, Heteranthera limosa
Summary of the method: (§1)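 Each value is a visual injury score relative to controls, with 10 meaning complete control and 0 no effect. Evaluation took place twelve to sixteen days after the 2-leaf-stage plants were treated and kept in the greenhouse.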

morningglory = assay: Test B pre/postemergence morningglory; assay type: in vivo, Ipomoea hederacea
Summary of the method: (§2)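 Response is a visual 0-to-10 score relative to untreated plants, where 0 means no effect and 10 means complete control, taken twelve to sixteen days after application. Treatments went onto soil at planting and onto foliage of 1- to 4-leaf plants, using a surfactant-containing non-phytotoxic solvent.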

rice = assay: Test B flood test rice; assay type: in vivo, Oryza sativa
Summary of the method: as §1

giant foxtail = assay: Test B pre/postemergence giant foxtail; assay type: in vivo, Setaria faberii
Summary of the method: as §2

[1] = Rate 62 g/ha, flood test species, Pre-emergence, visual evaluation after twelve to sixteen days
[2] = Rate 125 g/ha, under heading Pre-emergence, flood test species, visual evaluation after twelve to sixteen days
[3] = Rate 250 g/ha, Pre-emergence (flood test species), scale 0 to 10, 0 is no effect, 10 is complete control
[4] = Rate 500 g/ha, Pre-emergence, flood test species, scale 0 to 10 (0 no effect, 10 complete control)
[5] = Postemergence, Rate 250 g/ha, scale 0 to 10
[6] = Postemergence, Rate 500 g/ha, scale of 0 to 10 where 0 is no effect and 10 is complete control
[7] = Preemergence, Rate 62 g/ha, scale of 0 to 10 where 0 is no effect and 10 is complete control
[8] = Preemergence, Rate 125 g/ha, scale of 0 to 10 where 0 is no effect and 10 is complete control
[9] = Preemergence, Rate 250 g/ha, scale 0 to 10, 0 is no effect, 10 is complete control
[10] = Preemergence, Rate 500 g/ha, scale 0 to 10, 0 is no effect, 10 is complete control
[11] = Rate 62 g/ha, Postemergence, scale 0 to 10, 0 no effect, 10 complete control
[12] = Rate 125 g/ha, Postemergence, scale 0 to 10, 0 is no effect, 10 is complete control
[13] = Postemergence (flood test species), Rate 125 g/ha, scale of 0 to 10 where 0 is no effect and 10 is complete control
[14] = Rate 62 g/ha, Postemergence section, flood test species, scale of 0 to 10 where 0 is no effect and 10 is complete control
[15] = Rate 250 g/ha, Postemergence (flood test), scale 0 to 10, 0 is no effect, 10 is complete control
[16] = Rate 500 g/ha, listed under Postemergence (flood test species), scale 0 to 10
[17] = Postemergence, Rate 125 g/ha, scale of 0 to 10 where 0 is no effect and 10 is complete control
[18] = Preemergence, Rate 125 g/ha, 0 is no effect, 10 is complete control
[19] = Preemergence, Rate 500 g/ha, scale 0 to 10 (0 no effect, 10 complete control)
[20] = Rate 62 g/ha, Postemergence, scale of 0 to 10 where 0 is no effect and 10 is complete control
[21] = Rate 250 g/ha, Postemergence, scale 0 to 10, 0 is no effect, 10 is complete control
[22] = Rate 500 g/ha, Postemergence, scale 0 to 10
[23] = Postemergence section (flood test species), Rate 500 g/ha, scale of 0 to 10 where 0 is no effect and 10 is complete control
[24] = Rate 62 g/ha, Postemergence (flood test species), scale of 0 to 10 where 0 is no effect and 10 is complete control
[25] = flood test species, listed under Postemergence, Rate 250 g/ha, scale 0 to 10, 0 is no effect, 10 is complete control
[26] = Postemergence, Rate 250 g/ha, scale 0 to 10, 0 is no effect, 10 is complete control
[27] = Preemergence, Rate 62 g/ha, scale 0 to 10 (0 no effect, 10 complete control)

SMILES: COC(C)n1c(=O)on(C(=O)N(c2ccc(F)cc2)C(C)C)c1=O (stereo not shown) [Compound 439]
- Plant response rating, Ducksalad (0 to 10 scale, 0 is no effect, 10 is complete control) (duck salad; [1]): 0
- Ducksalad plant response rating (0 to 10 scale, 0 is no effect, 10 is complete control) (duck salad; [2]): 0
- Ducksalad plant response rating (duck salad; [3]): 0
- Ducksalad plant response rating (duck salad; [4]): 0
- Morningglory plant response rating (morningglory; [5]): 0
- Morningglory plant response rating (morningglory; [6]): 0
- Plant response rating, Morningglory (morningglory; [7]): 0
- Plant response rating, Morningglory (morningglory; [8]): 0
- Morningglory plant response rating (morningglory; [9]): 0
- Morningglory plant response rating (morningglory; [10]): 0
- Morningglory plant response rating (morningglory; [11]): 0
- Morningglory plant response rating (morningglory; [12]): 0
- Plant response rating, Rice (0 to 10 scale, 0 is no effect, 10 is complete control) (rice; [1]): 0
- Rice plant response rating (0 to 10 scale, 0 is no effect, 10 is complete control) (rice; [2]): 0
- Rice plant response rating (rice; [3]): 0
- Rice plant response rating (rice; [4]): 0
- Giant foxtail plant response rating (giant foxtail; [5]): 0
- Giant foxtail plant response rating (giant foxtail; [6]): 0
- Plant response rating, Giant foxtail (giant foxtail; [7]): 0
- Plant response rating, Giant foxtail (giant foxtail; [8]): 0
- Giant foxtail plant response rating (giant foxtail; [9]): 0
- Giant foxtail plant response rating (giant foxtail; [10]): 0
- Giant foxtail plant response rating (giant foxtail; [11]): 0
- Giant foxtail plant response rating (giant foxtail; [12]): 0

SMILES: CC(C)N(C(=O)n1oc(=O)n(-c2nc(Cl)sc2Cl)c1=O)c1ccc(F)cc1 [Compound 160]
- Ducksalad plant response rating (duck salad; [13]): 0
- Ducksalad plant response rating (duck salad; [14]): 0
- Plant response rating, Ducksalad (duck salad; [15]): 0
- Ducksalad plant response rating (duck salad; [16]): 0
- Morningglory plant response rating (morningglory; [17]): 0
- Morningglory plant response rating (morningglory; [7]): 0
- Morningglory plant response rating (0 to 10 scale) (morningglory; [18]): 0
- Morningglory plant response rating (morningglory; [9]): 0
- Morningglory plant response rating (morningglory; [19]): 0
- Morningglory plant response rating (morningglory; [20]): 0
- Plant response rating, Morningglory (morningglory; [21]): 0
- Morningglory plant response rating (morningglory; [22]): 0
- Rice plant response rating (rice; [13]): 0
- Rice plant response rating (rice; [14]): 0
- Plant response rating, Rice (rice; [15]): 0
- Rice plant response rating (rice; [16]): 0
- Giant foxtail plant response rating (giant foxtail; [17]): 0
- Giant foxtail plant response rating (giant foxtail; [7]): 0
- Giant foxtail plant response rating (0 to 10 scale) (giant foxtail; [18]): 0
- Giant foxtail plant response rating (giant foxtail; [9]): 0
- Giant foxtail plant response rating (giant foxtail; [19]): 0
- Giant foxtail plant response rating (giant foxtail; [20]): 0
- Plant response rating, Giant foxtail (giant foxtail; [21]): 0
- Giant foxtail plant response rating (giant foxtail; [22]): 0

SMILES: CC(C)N(C(=O)n1oc(=O)n(CCCC(F)(F)F)c1=O)c1ccc(F)cc1 [Compound 398]
- Plant response rating, Ducksalad (duck salad; Postemergence (flood test), Rate 125 g/ha, scale 0 to 10, 0 is no effect, 10 is complete control): 0
- Ducksalad plant response rating (duck salad; [23]): 0
- Ducksalad plant response rating (duck salad; [24]): 0
- Plant response rating, Ducksalad (duck salad; [25]): 0
- Plant response rating, Morningglory (morningglory; [26]): 3
- Morningglory plant response rating (morningglory; [6]): 8
- Plant response rating, Morningglory (morningglory; [27]): 0
- Plant response rating, Morningglory (morningglory; [8]): 0
- Morningglory plant response rating (morningglory; [9]): 0
- Morningglory plant response rating (morningglory; [10]): 0
- Morningglory plant response rating (morningglory; [20]): 2
- Rice plant response rating (rice; [23]): 0
- Rice plant response rating (rice; [24]): 0
- Plant response rating, Rice (rice; [25]): 0
- Plant response rating, Giant foxtail (giant foxtail; Postemergence, Rate 125 g/ha, scale 0 to 10, 0 is no effect, 10 is complete control): 8
- Plant response rating, Giant foxtail (giant foxtail; [26]): 9
- Giant foxtail plant response rating (giant foxtail; [6]): 9
- Plant response rating, Giant foxtail (giant foxtail; [27]): 10
- Plant response rating, Giant foxtail (giant foxtail; [8]): 10
- Giant foxtail plant response rating (giant foxtail; [9]): 10
- Giant foxtail plant response rating (giant foxtail; [10]): 10
- Giant foxtail plant response rating (giant foxtail; [20]): 3
